Experimental data taken from US20110117081A1, “FUNCTIONALIZED PYRROLIDINES AND USE THEREOF AS IAP INHIBITORS” (priority 2008, published 2011).

Legend:
[1] = test system: Ovarian adenocarcinoma SKOV3 cells; assay: SKOV3 cell viability assay (MTT); assay type: cell-based; settings: Homo sapiens, SK-OV-3, 72 hours
Experimental: Ovarian adenocarcinoma SKOV3 cells (ATCC# HTB-77) were cultured as monolayers in McCoy's 5a medium (HyClone) supplemented with 2.2 g/L sodium bicarbonate (Gibco), 10% FBS (HyClone) and 1% penicillin/streptomycin (HyClone). Cells were seeded in tissue culture-treated 96 well plates at 5000 cells/well in 150 ul of media. After 24 hours, triplicate wells of cells were treated with various concentrations of compound (0.01 to 10000 nM) diluted in 50 ul of culture media. Cells were incubated at 37° C. (5% CO2) in the presence of compound for 72 hours. Metabolic viability of remaining cells was assessed by MTT (thiazolyl blue tetrazolium bromide, Sigma) assay. 20 ul of MTT reagent (10 mg/ml) was added per well and plates were incubated for 4 hours at 37° C. (5% CO2). The supernatant was then removed from the plate. The converted MTT product was solubilized with 100 uL of isopropanol and the absorbance was read at 570 nm using a Tecan spectrophotometer.
(§1) The percentage viability of compound-treated cells was expressed as a fraction of the absorbance/luminescence signal obtained from non-treated cells. EC50 values (corresponding to 50% cell survival in the presence of compound as compared to untreated controls) were calculated from MTT survival curves (HCT116 and SKOV3) using BioAssay software (CambridgeSoft) and from Cell Titer-Glo survival curves (synovioycte and Jurkat cells) using GraphPad Prism (Graph Pad Software Inc.). In the below chart, EC50 values are summarized as follows: a=EC50 of less than 10 nM; b=EC50 of 10-100 nM; and c=EC50 of greater than 100 nM.

[2] = test system: Colorectal carcinoma HCT116 cells; assay: HCT116 + ETR1 cell viability assay (MTT); assay type: cell-based; settings: with ETR1 (40 ng/ml), 72 hrs
Experimental: Colorectal carcinoma HCT116 cells (ATCC# CCL-247) were cultured as monolayers in 96 well plates at a density of 2000 cells per well in 100 ul of McCoy's 5a medium (HyClone) supplemented with 2.2 g/L sodium bicarbonate (Gibco), 10% FBS (HyClone) and 1% penecillin/streptomycin (HyClone) for 24 hours. Triplicate wells of cells were treated for 72 hrs at 37° C. (5% CO2) with 50 ul of HGS agonistic Trail receptor antibody, ETR1 (40 ng/ml) in combination with 50 ul of diluted compound (0.01 to 10000 nM). Metabolic viability of remaining cells was assessed by MTT assay.
as §1

Row | Structure (SMILES) | EC50 [1] | EC50 [2]
1 | CN[C@@H](C)C(=O)N[C@H](C(=O)N1C[C@@H](NC(=O)c2ccc(C(=O)N[C@H]3C[C@@H](C(=O)NC(c4ccccc4)c4ccccc4)N(C(=O)[C@@H](NC(=O)[C@H](C)NC)C4CCCCC4)C3)cc2)C[C@H]1C(=O)NC(c1ccccc1)c1ccccc1)C1CCCCC1 [Compound 5] | < 10 nM | < 10 nM
2 | CN[C@@H](C)C(=O)N[C@H](C(=O)N1C[C@@H](NC(=O)c2ccc(C(=O)N[C@H]3C[C@@H](C(=O)N[C@@H]4CCc5ccccc54)N(C(=O)[C@@H](NC(=O)[C@H](C)NC)C4CCCCC4)C3)cc2)C[C@H]1C(=O)N[C@@H]1CCc2ccccc21)C1CCCCC1 [Compound 6] | < 10 nM | < 10 nM
3 | CN[C@@H](C)C(=O)N[C@H](C(=O)N1C[C@@H](NC(=O)c2ccc(C(=O)N[C@H]3C[C@@H](C(=O)N[C@H](CCCc4ccccc4)c4ccccc4)N(C(=O)[C@@H](NC(=O)[C@H](C)NC)C4CCCCC4)C3)cc2)C[C@H]1C(=O)N[C@H](CCCc1ccccc1)c1ccccc1)C1CCCCC1 [Compound 8] | > 100 nM | 10 to 100 nM
4 | CN[C@@H](C)C(=O)N[C@H](C(=O)N1C[C@@H](NC(=O)c2ccc(-c3ccc(C(=O)N[C@H]4C[C@@H](C(=O)N[C@@H]5CCCc6ccccc65)N(C(=O)[C@@H](NC(=O)[C@H](C)NC)C5CCCCC5)C4)cc3)cc2)C[C@H]1C(=O)N[C@@H]1CCCc2ccccc21)C1CCCCC1 [Compound 9] | < 10 nM | < 10 nM
5 | CN[C@@H](C)C(=O)N[C@H](C(=O)N1C[C@@H](NC(=O)c2ccc(-c3ccc(C(=O)N[C@H]4C[C@@H](C(=O)N[C@@H]5CCc6ccccc65)N(C(=O)[C@@H](NC(=O)[C@H](C)NC)C5CCCCC5)C4)cc3)cc2)C[C@H]1C(=O)N[C@@H]1CCc2ccccc21)C1CCCCC1 [Compound 10] | < 10 nM | < 10 nM
6 | CN[C@@H](C)C(=O)N[C@H](C(=O)N1C[C@@H](NC(=O)c2ccc(-c3ccc(C(=O)N[C@H]4C[C@@H](C(=O)NC(c5ccccc5)c5ccccc5)N(C(=O)[C@@H](NC(=O)[C@H](C)NC)C5CCCCC5)C4)cc3)cc2)C[C@H]1C(=O)NC(c1ccccc1)c1ccccc1)C1CCCCC1 [Compound 11] | 10 to 100 nM | < 10 nM
7 | CN[C@@H](C)C(=O)N[C@H](C(=O)N1C[C@@H](NC(=O)c2ccc(-c3ccc(C(=O)N[C@H]4C[C@@H](C(=O)NC5c6ccccc6-c6ccccc65)N(C(=O)[C@@H](NC(=O)[C@H](C)NC)C5CCCCC5)C4)cc3)cc2)C[C@H]1C(=O)NC1c2ccccc2-c2ccccc21)C1CCCCC1 [Compound 12] | 10 to 100 nM | < 10 nM
8 | CN[C@@H](C)C(=O)N[C@H](C(=O)N1C[C@@H](NC(=O)c2ccc(C(=O)N[C@H]3C[C@@H](C(=O)N[C@H](C)c4ccccc4)N(C(=O)[C@@H](NC(=O)[C@H](C)NC)C4CCCCC4)C3)cc2)C[C@H]1C(=O)N[C@H](C)c1ccccc1)C1CCCCC1 [Compound 13] | < 10 nM | < 10 nM
9 | CN[C@@H](C)C(=O)N[C@H](C(=O)N1C[C@@H](NC(=O)c2ccc(C(=O)N[C@H]3C[C@@H](C(=O)N[C@H](Cc4ccccc4)c4ccccc4)N(C(=O)[C@@H](NC(=O)[C@H](C)NC)C4CCCCC4)C3)cc2)C[C@H]1C(=O)N[C@H](Cc1ccccc1)c1ccccc1)C1CCCCC1 [Compound 14] | 10 to 100 nM | < 10 nM
10 | CN[C@@H](C)C(=O)N[C@H](C(=O)N1C[C@@H](NC(=O)c2ccc(C(=O)N[C@H]3C[C@@H](C(=O)NC4c5ccccc5-c5ccccc54)N(C(=O)[C@@H](NC(=O)[C@H](C)NC)C4CCCCC4)C3)cc2)C[C@H]1C(=O)NC1c2ccccc2-c2ccccc21)C1CCCCC1 [Compound 15] | < 10 nM | < 10 nM
11 | CN[C@@H](C)C(=O)N[C@H](C(=O)N1C[C@@H](NC(=O)c2ccc(C(=O)N[C@H]3C[C@@H](C(=O)N[C@H](CCc4ccccc4)c4ccccc4)N(C(=O)[C@@H](NC(=O)[C@H](C)NC)C4CCCCC4)C3)cc2)C[C@H]1C(=O)N[C@H](CCc1ccccc1)c1ccccc1)C1CCCCC1 [Compound 16] | 10 to 100 nM | 10 to 100 nM
12 | CN[C@@H](C)C(=O)N[C@H](C(=O)N1C[C@@H](NC(=O)C2CCC(C(=O)N[C@H]3C[C@@H](C(=O)N[C@H](COCc4ccccc4)c4ccccc4)N(C(=O)[C@@H](NC(=O)[C@H](C)NC)C4CCCCC4)C3)CC2)C[C@H]1C(=O)N[C@H](COCc1ccccc1)c1ccccc1)C1CCCCC1 (stereo partly shown) [Compound 17] | 10 to 100 nM | < 10 nM
13 | CN[C@@H](C)C(=O)N[C@H](C(=O)N1C[C@@H](NC(=O)c2ccc(C(=O)N[C@H]3C[C@@H](C(=O)N[C@H](COCc4ccccc4)c4ccccc4)N(C(=O)[C@@H](NC(=O)[C@H](C)NC)C4CCCCC4)C3)cc2)C[C@H]1C(=O)N[C@H](COCc1ccccc1)c1ccccc1)C1CCCCC1 [Compound 18] | 10 to 100 nM | < 10 nM
14 | CN[C@@H](C)C(=O)N[C@H](C(=O)N1C[C@@H](NC(=O)c2ccc3cc(C(=O)N[C@H]4C[C@@H](C(=O)N[C@@H]5CCCc6ccccc65)N(C(=O)[C@@H](NC(=O)[C@H](C)NC)C5CCCCC5)C4)ccc3c2)C[C@H]1C(=O)N[C@@H]1CCCc2ccccc21)C1CCCCC1 [Compound 19] | < 10 nM | < 10 nM
15 | CN[C@@H](C)C(=O)N[C@H](C(=O)N1C[C@@H](NC(=O)c2ccc3cc(C(=O)N[C@H]4C[C@@H](C(=O)NC5c6ccccc6-c6ccccc65)N(C(=O)[C@@H](NC(=O)[C@H](C)NC)C5CCCCC5)C4)ccc3c2)C[C@H]1C(=O)NC1c2ccccc2-c2ccccc21)C1CCCCC1 [Compound 20] | < 10 nM | < 10 nM
16 | CN[C@@H](C)C(=O)N[C@H](C(=O)N1C[C@@H](NC(=O)c2ccc3cc(C(=O)N[C@H]4C[C@@H](C(=O)N[C@H](COCc5ccccc5)c5ccccc5)N(C(=O)[C@@H](NC(=O)[C@H](C)NC)C5CCCCC5)C4)ccc3c2)C[C@H]1C(=O)N[C@H](COCc1ccccc1)c1ccccc1)C1CCCCC1 [Compound 21] | 10 to 100 nM | < 10 nM
17 | CN[C@@H](C)C(=O)N[C@H](C(=O)N1C[C@@H](NC(=O)c2ccc3cc(C(=O)N[C@H]4C[C@@H](C(=O)N[C@@H]5CCc6ccccc65)N(C(=O)[C@@H](NC(=O)[C@H](C)NC)C5CCCCC5)C4)ccc3c2)C[C@H]1C(=O)N[C@@H]1CCc2ccccc21)C1CCCCC1 [Compound 22] | < 10 nM | < 10 nM
18 | CN[C@@H](C)C(=O)N[C@H](C(=O)N1C[C@@H](NC(=O)c2ccc3cc(C(=O)N[C@H]4C[C@@H](C(=O)NC(c5ccccc5)c5ccccc5)N(C(=O)[C@@H](NC(=O)[C@H](C)NC)C5CCCCC5)C4)ccc3c2)C[C@H]1C(=O)NC(c1ccccc1)c1ccccc1)C1CCCCC1 [Compound 23] | < 10 nM | < 10 nM
19 | CN[C@@H](C)C(=O)N[C@H](C(=O)N1C[C@@H](NC(=O)C2CCC(C(=O)N[C@H]3C[C@@H](C(=O)N[C@@H]4CCOc5ccc(F)cc54)N(C(=O)[C@@H](NC(=O)[C@H](C)NC)C4CCCCC4)C3)CC2)C[C@H]1C(=O)N[C@@H]1CCOc2ccc(F)cc21)C1CCCCC1 (stereo partly shown) [Compound 24] | 10 to 100 nM | < 10 nM
20 | CN[C@@H](C)C(=O)N[C@H](C(=O)N1C[C@@H](NC(=O)c2ccc(C(=O)N[C@H]3C[C@@H](C(=O)N[C@@H]4CCOc5ccc(F)cc54)N(C(=O)[C@@H](NC(=O)[C@H](C)NC)C4CCCCC4)C3)cc2)CC1C(=O)N[C@@H]1CCOc2ccc(F)cc21)C1CCCCC1 (stereo partly shown) [Compound 25] | 10 to 100 nM | < 10 nM
